# Measurements taken from patent publication US4026857A, “Epoxy emulsion water-based coating” (priority 1975, dated 1977).
# What was measured:
# [1] = Solubility of solvents in water and of water in solvents; format: physicochemical; details: for Solubility, Solvent in H2 O: solvent in water; for Solubility, H2 O in Solvent: water in solvent
# [2] = Emulsion formation with different organic solvents; format: physicochemical; details: 50 parts solvent, 100 parts epoxy resin, 14 parts surfactant, 150 parts deionized water
# Protocol: A series of emulsions were prepared using 100 parts of an epoxy resin (diglycidylether of bisphenol A) having an epoxy equivalent weight of 2,000-2,500, 50 parts of a solvent, 14 parts of surfactant having the formula [drawing 1] wherein a+ c is about 190-200, b is about 60-70, and average molecular weight is about 12,500, and 150 parts of deionized water. In each emulsion a different solvent was used. Each emulsion, as well as other emulsions whose formulations are described in this specification, was prepared using the following general procedure:
# The epoxy resin was dissolved in the solvent by heating at 130° C. with agitation. The resin solution was then cooled to about 65° C. and placed in high speed dispersing equipment. The surfactant was added. (In formulations wherein the emulsion coating was to be baked, cross-linking catalyst and curing agent, as defined hereinafter, were also added at this point.) Part of the water (about 100 parts) was then slowly added under high speed agitation (approximately 2,000 ft./min. peripheral speed) to pass the inversion point. Thereupon the agitation speed was slowed down to about 1,000 ft./min. and the balance of the water was added.
# In each emulsion, a different organic solvent was used. […] Each emulsion formed was applied, by wire wound bar application, to a test panel of lubricated electrolytic tinplated steel. […]
SMILES,"Solubility, Solvent in H2 O [1]","Solubility, H2 O in Solvent [1]",emulsion formation [2]
"CCCCCCOCCO [Hexyl Cellosolve, 2-Hexoxyethanol]",0.99 wt. %,18.8 wt. %,
COCCO [Methyl Cellosolve],.infin.,.infin.,
OCCOCCOc1ccccc1 [diethylene glycol monophenyl ether],,,an emulsion could not be formed

# Continued, values first:
"Solubility, Solvent in H2 O [1]","Solubility, H2 O in Solvent [1]",emulsion formation [2],SMILES
.infin.,.infin.,,CCOCCO [Ethyl Cellosolve]
,,an emulsion could not be formed,CC(C)CC(=O)CC(C)C [diisobutyl ketone]
